Experimental findings from patent US20030040521A1, “Novel pyrimidin-4-enamine as fungicide” (priority 1998, published 2003) are described below.

Series [1] concerns Colletotrichum Lagenarium. The series can be described thus: Action against Colletotrichum lagenarium on cucumbers. In kind it is in vivo. Conditions: cucumber plants, spray mixture 0.002%, infected 2 days later, evaluation 8 days after infection. The method, then:
Action Against Colletotrichum Lagenarium on Cucumbers After a growth period of 2 weeks, cucumber plants are sprayed with an aqueous spray mixture (concentration 0.002%) prepared from a wettable powder formulation of the test compound and infected 2 days later with a spore suspension (1.5×10^5 spores/ml) of the fungus and incubated for 36 hours at 23° C. and high humidity. Incubation is then continued at normal humidity and c. 22° C. Evaluation of the fungal infestation is made 8 days after infection.

Another series concerns Venturia Naegualis. The series can be described thus: Residual-protective action against Venturia inaequalis on apples. It counts as in vivo. Conditions: apple cuttings, spray mixture 0.02% a.i., infected 24 hours later, evaluation 12 days after infection. The method, then:
Residual-protective Action Against Venturia Naegualis on Apples
Apple cuttings with fresh shoots 10 to 20 cm long are sprayed to drip point with a spray mixture (0.02% a.i.) prepared from a wettable powder formulation of the test compound. The plants are infected 24 hours later with a conidia suspension of the fungus. The plants are then incubated for 5 days at 90 to 100% relative humidity and stood in a greenhouse for a further […] at 20 to 24° C. Evaluation of the fungal infestation is made 12 days after infection. Compounds of Tables 1-4 show good activity, preferably the compounds 1.72, 1.81, 1.152, 1.160, 2.11, 3.6, 4.3, 4.5, 4.6, 4.27, 4.29, 4.30, 4.36, 4.38, 4.39, 4.43, 4.45, 4.62, 4.80 and 4.111.

Compound `CCCCc1nc2ccc(Cl)cc2c(=NC)n1CCC` [Compound 1.72] showed a melting point of 58 to 60 °C. Further, the “activity against Colletotrichum lagenarium (fungal infestation)” value in series [1] was “good to excellent activity”. In addition, in the series with Venturia Naegualis, the “residual-protective activity against Venturia on apples (fungal infestation)” value (“residual-protective activity” below) is recorded as “good activity”.
`CCCOC1=Nc2ccc(Cl)cc2C(=CN)N1CCC` [Compound 1.74, (6-chloro-2-propoxy-3-propyl-3H-quinazolin-4-ylidene)methylamine] returned a melting point of 53 to 55 °C.
Take `CCCCc1nc2ccc(Br)cc2c(=NC)n1CCC` [Compound 1.81]: the melting point fell in the range of 61 to 64 °C. Besides, the “activity against Colletotrichum lagenarium (fungal infestation)” value in series [1] is recorded as “good to excellent activity”. In the series on Venturia Naegualis, the “residual-protective activity” value was “good activity”.
`CCCN=c1c2cc(Cl)ccc2nc(OCCC)n1CCC` [Compound 1.152, (6-Chloro-2-propoxy-3-propyl-3H-quinazoline-4-ylidene)propylamine] came in with a melting point of 50 to 51 °C. For the same compound, in series [1], the “activity against Colletotrichum lagenarium (fungal infestation)” value is recorded as “good to excellent activity”. Also, the “residual-protective activity” value with Venturia Naegualis is reported as “good activity”.
Regarding `CCCCN=c1c2cc(Cl)ccc2nc(OCCC)n1CCCC` [Compound 1.160], the “activity against Colletotrichum lagenarium (fungal infestation)” value in series [1] is reported as “good to excellent activity”. In the series on Venturia Naegualis, the “residual-protective activity” value is “good activity”.
Taken in the same sequence, the figures for `CCCOc1nc2ncc(Br)cc2c(=N)n1CCC` [Compound 2.11] were “good to excellent activity” and “good activity”.
The like results for `CCCOc1nc2c(Br)csc2c(=NC)n1CCC` [Compound 3.6] were, in that order, “good to excellent activity” and “good activity”.
Consider `CCCCc1nc2sccc2c(=N)n1CCC` [Compound 4.3], for which the “activity against Colletotrichum lagenarium (fungal infestation)” value in series [1] is “good to excellent activity”. Moreover, the “residual-protective activity” value in the series on Venturia Naegualis is reported as “good activity”.
`CCCOc1nc2sccc2c(=N)n1CCC` [Compound 4.5]: the melting point lay within 61 to 63 °C. In addition, in series [1], the “activity against Colletotrichum lagenarium (fungal infestation)” value is on record as “good to excellent activity”. For the same compound, the “residual-protective activity” value in the series on Venturia Naegualis is “good activity”.
Turning to `CCCCn1c(OCCC)nc2sccc2c1=N` [Compound 4.6], the “activity against Colletotrichum lagenarium (fungal infestation)” value in series [1] is reported as “good to excellent activity”. Also, in the series with Venturia Naegualis, the “residual-protective activity” value was “good activity”.
Regarding `CCCCc1nc2sc(Cl)cc2c(=NC)n1CCC` [Compound 4.27, (2-Butyl-6-chloro-3-propyl-3H-thieno [2,3-d]pyrimidine-4-ylidene)methylamine], the “activity against Colletotrichum lagenarium (fungal infestation)” value in series [1] is “good to excellent activity”. Further, in the series with Venturia Naegualis, the “residual-protective activity” value is reported as “good activity”.
The like results for `CCCCn1c(OCCC)nc2sc(Cl)cc2c1=NC` [Compound 4.30] were, in that order, “good to excellent activity” and “good activity”.
The like results for `CCCOc1nc2sc(Br)cc2c(=NC)n1CCC` [Compound 4.38, (6-Bromo-3-propyl-2-propoxy-3H-thieno[2,3-d]pyrimidine-4-ylidene)methylamine] were, in that order, “good to excellent activity” and “good activity”.
The like results for `CCCCn1c(OCCC)nc2sc(Br)cc2c1=NC` [Compound 4.39] were, in that order, “good to excellent activity” and “good activity”.
Regarding `CCCCc1nc2sc(Cl)cc2c(=NCC)n1CCC` [Compound 4.43], in series [1], the “activity against Colletotrichum lagenarium (fungal infestation)” value is given as “good to excellent activity”. In addition, the “residual-protective activity” value in the series on Venturia Naegualis is listed as “good activity”.
`CCCOc1nc2sc(Cl)cc2c(=NCC)n1CCC` [Compound 4.45]: in series [1], the “activity against Colletotrichum lagenarium (fungal infestation)” value was “good to excellent activity”. In the series with Venturia Naegualis, the “residual-protective activity” value is “good activity”.
The like results for `C=CCN=c1c2cc(Cl)sc2nc(OCCC)n1CCC` [Compound 4.62] were, in that order, “good to excellent activity” and “good activity”.
The like results for `C#CCN=c1c2cc(Cl)sc2nc(OCCC)n1CCC` [Compound 4.80] were, in that order, “good to excellent activity” and “good activity”.
Taken in the same sequence, the figures for `CCCOc1nc2sc(Cl)cc2c(=NCl)n1CCC` [Compound 4.111] were “good to excellent activity” and “good activity”.
`CCCCc1nc2sc(Cl)cc2c(=NC(=O)OC)n1CCCC` [Compound 4.119, (6-chloro-2-butyl-3-butyl-3H-thieno[2,3-d]pyrimidine-4-ylidene)carbamic acid methylester]: the melting point lay in the range of 103 to 104 °C.
Still for that read-out and setting: as for `CCCOc1nc2sc(Cl)cc2c(=NC(C)=O)n1CCC` [Compound 4.137, N-(6-chloro-2-propoxy-3-propyl-3H-thieno[2,3-d]pyrimidine-4-ylidene)acetamide], the figure is 101 to 103 °C.
The same measure, in the same setting: for `CCCCc1nc2sc(Cl)cc2c(=NC(C)=O)n1CCC` [Compound 4.139, N-(6-chloro-2-butyl-3-propyl-3H-thieno[2,3-d]pyrimidine-4-ylidene)acetamide] the value was 98 to 99 °C.
